Assay results: patent US12467038B2, “Methods of culturing human pluripotent cells” (Hadasit Medical Research Services and Development Ltd., priority 2019, dated 2025)

Assays:
[1] = tested on: hPSCs; test: Undifferentiated propagation and PGC differentiation of hPSCs on laminin; assay type: cell-based, human; conditions: HES-2 hPSCs
Experimental: LN-hPSCs were cultured on mouse LN111, 3-D Culture Matrix Laminin I (CULTREX, TREVIGEN, #3446-005-01, Gaithersburg, Md., USA). 0.175 ml diluted LN111 (1:14 to a coating concentration of 0.43 mg/ml) was used to coat a well of a 6-well culture dish, leaving a margin of 2-3 mm at the well edge (a final concentration of ˜8 microgram/cm^2). The coated dishes were incubated from 4 hours to 4 days, at 37° C., and washed with PBS before use. LN-hPSCs were cultured in a medium composed of DMEM/F12, B27 supplement (1:50), N2 supplement (1:100), 2 mM L-glutamine, 50 units/ml penicillin, 50 μg/ml streptomycin (all from Invitrogen), and supplemented daily with 20 ng/ml FGF2 (Peprotech). Cells were passaged every 5-6 days using 1.5 mg/ml collagenase type IV (Invitrogen). 5 μM ROCK inhibitor (Y-27632, Peprotech) was added for the first day after passaging.
hPSCs were cultured on human recombinant LN521 (BIOLAMINA, Sundbyberg, Sweden). Coating of culture dishes with hrLN521 was performed according to the manufacturer's instructions (Coating concentration ˜0.45 microgram/cm^2). Cells were cultured in the same medium used for culturing LN-hPSCs, and passaged with collagenase type IV.
PGC differentiation of hPSCs in suspension—LN-hPSCs and hPSCs cultured on hrLN-521 were dissociated into a single-cell suspension using TrypLE Select Enzyme (Invitrogen). Primed hPSCs were first dissociated from the MEF feeders by treatment with collagenase type IV, followed by dissociation into single cells by TrypLE Select Enzyme. 2000-3000 cells were seeded into a microwell of AggreWell™800 24-well plate (STEMCELL Technologies), and cultured as EBs in suspension, in PGCLC differentiation medium as described elsewhere (Irie et al., 2015).

[2] = tested on: hPSCs; test: Extended propagation and karyotype analysis; assay type: cell-based, human
Experimental: hPSC culture—hPSC culture—hPSC lines HES-1, HES-2 (10), HADC100, HADC102 (36) and H7 (9) were cultured on human foreskin feeders in serum free medium as described (30, 87). hPSC culturing in suspension was performed as reported (31) with minor modifications of the culture medium that was composed of Neurobasal medium, 14% KO-SR, L-glutamine 2 mM, 50 units/ml penicillin, 50 μg/ml streptomycin, 1% nonessential amino acids (all from Invitrogen, Carlsbad, Calif., USA). The medium was supplemented with FGF2 20 ng/ml, and activin A 25 ng/ml (both from Peprotech, Rocky Hill, N.J., USA), and laminin 0.5 μg/ml (Sigma-Aldrich, St. Louis, Mo., USA). For hPSC culturing on mouse LN111, 3-D Culture Matrix Laminin I (CULTREX, TREVIGEN, #3446-005-01, Gaithersburg, Md., USA) was diluted to a concentration of 1 mg/ml. Tissue culture dishes were coated with LN111, incubated overnight at 37° C. to promote matrix gelling, and washed with PBS. hPSCs were cultured on LN111 in a chemically defined medium composed of DMEM/F12, B27 supplement (1:50), N2 supplement (1:100) 2 mM L-glutamine, 50 units/ml penicillin, 50 μg/ml streptomycin (all from Invitrogen), and supplemented with 20 ng/ml bFGF (Peprotech). The cells were cultured in 5% CO2, 5% O2 incubator They were passaged every 7 days as small clusters by treatment with 1 mg/ml collagenase type IV (Invitrogen), and plated in a medium containing 5 μM ROCK inhibitor. hPSC culture under naïve conditions was performed using the 5iLFA protocol (20).
Alkaline phosphatase activity detection and karyotyping—Detection of alkaline phosphatase activity was performed on hPSC colonies using the Alkaline Phosphatase Staining Kit II (Stemgent, Cambridge, Mass., USA) according to the manufacturer's instructions. Karyotype analysis, was performed on 3-4 day hPSC colonies.

“LN111: mouse LN111, 3-D Culture Matrix Laminin I (CULTREX, TREVIGEN), coating of culture dishes” was tested, and the “competence to initiate germ cell specification” value [1] was “competent to initiate germ cell specification”, the extended undifferentiated propagation ([2]; HADC100) was 6 passages and the extended undifferentiated propagation ([2]; HADC102) was 8 passages. For the same substance, the “passages propagated while maintaining a normal karyotype” value ([2]; HES-1 cells) was “at least 10 passages”.
